Columns and labels:
[1] = Evaluation of oral absorbability (plasma concentration after oral administration); assay type: in vivo; details: BALB/cA mouse, 0.5% HPMC, 0.5-6 hours
Experimental: The test compound was suspended or dissolved in 0.5% HPMC and orally administered to a BALB/cA mouse. The blood was drawn from the retro-orbital venous plexus 0.5, 1, 2, 4, and 6 hours after oral administration to obtain plasma. The concentration of the compound in the plasma thus obtained was measured by LCMS and the oral absorbability was evaluated.

[2] = system: human-derived stomach cancer cell line SNU-16; test: Inhibitory effect on cell proliferation (CellTiter-Glo, 72 hours); assay type: cell-based; details: SNU-16, 72 hours
Text: Cells of the human-derived stomach cancer cell line SNU-16 were each routinely subcultured in the 10% fetal bovine serum (FBS)-containing RPMI-1640 medium and 10% FBS-containing Dulbecco's Modified Eagle Medium (DMEM) in order to maintain cell density of no more than 80%. In order to initiate a test for the inhibitory activity on cell proliferation, cells were each suspended in the aforementioned medium and seeded in each well of a 96-well flat bottom plate (black plate with a transparent bottom) at 2,500 or 3,000 cells per well. The cells were then cultured for one day at 37° C. in an incubator containing 5% carbon dioxide gas. The next day, the compound of the present invention and the subject compound were dissolved in DMSO, and using DMSO, the test compounds were serially diluted to a concentration of 200 times the final concentration. The solution of the test compounds in DMSO was diluted with the medium used for culturing, and then added to each well of the cell culture plate at a final DMSO concentration of 0.5%. The cells were cultured for 72 hours at 37° C. in an incubator containing 5% carbon dioxide gas. The cells were counted at the time of addition of the test compounds and 72 hours after culturing using the CellTiter-Glo Luminescent Cell Viability Assay kit (the product of Promega) based on the protocol recommended by Promega. The reagent included in the kit was added to each plate, followed by stirring, and the plates were left to stand at room temperature for 10 minutes. Upon completion of the reaction, the luminescence signal was measured using a microplate reader.
The cell proliferation inhibitory rate was calculated from the following formula and the concentration of the test compound at which the cell proliferation was inhibited by 50% (GI50 (nM)) was determined. Cell proliferation inhibitory rate (%)=(C−T)/(C−C0)×100 T: Luminescence signal in a well with the addition of the test compound C: Luminescence signal in a well without the addition of the test compound C0: Luminescence signal in a well measured before the addition of the compound

[3] = system: human uterine cervical cancer cell line (Hela-Luc); test: Evaluation of the anti-tumor effect (2), Hela-Luc subcutaneous transplant in nude mouse; assay type: in vivo; details: Day 11, paclitaxel 20 mg/kg iv day 1
[4] = system: human uterine cervical cancer cell line (Hela-Luc); test: Evaluation of the anti-tumor effect (1), Hela-Luc subcutaneous transplant in nude mouse; details: Day 23; paclitaxel 30 mg/kg iv day 1; compound 60 mg/kg oral twice a day on day 2 and 3
Text: The luciferase-introduced human uterine cervical cancer cell line (Hela-Luc) was subcutaneously transplanted into a nude mouse, and when the volume of the grafted tumor reached 100 to 200 mm^3, five mice in one group were grouped into the single drug administration group and combinational administration group by a randomized stratification method so as to achieve a uniform tumor volume in each group (day 1). […] In order to compare the anti-tumor effect brought about by drug administration, setting the tumor volume at the time of grouping at 1, the relative tumor volume (RTV) was determined in accordance with the following formula as a rate of tumor proliferation. RTV=(Tumor volume on the day of measurement of tumor volume)/(Tumor volume at the time of grouping)
Meanwhile, as the index of systemic toxicity caused by drug administration, the body weight change (BWC) was used. BWC (%)=([(Body weight of mouse on the day of body weight measurement)−(Body weight of mouse at the time of grouping)]/(Body weight of mouse at the time of grouping))×100

[5] = Table 22, Compound 13 30 mg/kg oral twice a day on day 2 and 3
[6] = Table 23, Compound 22 100 mg/kg single, 60 mg/kg in combination, oral twice a day on day 2 and 3

Row | Compound | oral absorbability (plasma concentration after oral administration) [1] | GI50 [2] [µM] | BWC (body weight change) [3, 5] [%] | BWC (body weight change) [3, 6] [%] | BWC (body weight change) [4] [%]
1 | Cc1cc(Nc2nc(CC3(C(=O)O)CCN(C(=O)c4cccc(Cl)c4Cl)CC3)ccc2F)n[nH]1 [Example 1, 1-(2,3-dichlorobenzoyl)-4-((5-fluoro-6-(5-methyl-1H-pyrazol-3-ylamino)pyridin-2-yl)methyl)piperidine-4-carboxylic acid] | favorable oral absorbability | 0.12 |  |  | 
2 | COc1ccc(CC2(C(=O)O)CCN(C(=O)c3cccc(Cl)c3F)CC2)nc1Nc1cc(C)[nH]n1 [Example 11, 1-(3-chloro-2-fluorobenzoyl)-4-((5-methoxy-6-(5-methyl-1H-pyrazol-3-ylamino)pyridin-2-yl)methyl)piperidine-4-carboxylic acid] | favorable oral absorbability |  |  |  | 
3 | Cc1cc(Nc2nc(CC3(C(=O)O)CCN(C(=O)c4cccc(Cl)c4F)CC3)ccc2Cl)n[nH]1 [Example 12, 1-(3-chloro-2-fluorobenzoyl)-4-((5-chloro-6-(5-methyl-1H-pyrazol-3-ylamino)pyridin-2-yl)methyl)piperidine-4-carboxylic acid] | favorable oral absorbability |  |  |  | 
4 | Cc1cc(Nc2nc(CC3(C(=O)O)CCN(C(=O)c4cccc(Cl)c4F)CC3)ccc2F)n[nH]1 [Example 13, 1-(3-chloro-2-fluorobenzoyl)-4-((5-fluoro-6-(5-methyl-1H-pyrazol-3-ylamino)pyridin-2-yl)methyl)piperidine-4-carboxylic acid] | favorable oral absorbability | 0.06 | 6.0 |  | 
5 | Cc1cc(Nc2nc(CC3(c4noc(C)n4)CCN(C(=O)c4cccc(Cl)c4F)CC3)ccc2F)n[nH]1 [Example 22, (3-chloro-2-fluorophenyl)(4-((5-fluoro-6-(5-methyl-1H-pyrazol-3-ylamino)pyridin-2-yl)methyl)-4-(5-methyl-1,2,4-oxadiazol-3-yl)piperidin-1-yl)methanone] | favorable oral absorbability | 0.97 |  | 6.9 | 
6 | CC(=O)O[C@H]1C(=O)[C@@]2(C)[C@H]([C@H](OC(=O)c3ccccc3)[C@]3(O)C[C@H](OC(=O)[C@H](O)[C@@H](NC(=O)c4ccccc4)c4ccccc4)C(C)=C1C3(C)C)[C@]1(OC(C)=O)CO[C@@H]1C[C@@H]2O [Paclitaxel, paclitaxel, reference compound] |  |  | 5.4 | 7.8 | 3.0

— patent publication US10092556B2, “Piperidine compound or salt thereof” (TAIHO PHARMACEUTICAL CO., LTD., priority 2012, dated 2018)
